Data on 22 compounds can be found in ChEMBL document CHEMBL4145565, “Prolyl Hydroxylase Inhibitors: A Breakthrough in the Therapy of Anemia Associated with Chronic Diseases” (J Med Chem, 2018).

In general, IC50 refers to the midpoint of a concentration-inhibition curve. In general, half-life refers to how long it takes for the measured level to halve. Usually pIC50 stands for the IC50 on a negative log10 scale, so that one unit is a factor of ten. By pEC50 is commonly meant the negative decadic logarithm of the EC50, by convention in mol/L. What is called EC50 is the concentration giving half of the maximal effect. For orientation: bioavailability means dose-corrected exposure relative to a reference, in per cent.

Data set [1] deals with T1, Egl nine homolog 1 (Homo sapiens, UniProt Q9GZT9). The data set is described as follows: Inhibition of HIF-PHD2 (unknown origin) by fluorescence polarization assay. Background: In fluorescence polarisation assays a small probe gives low polarisation when free and higher when bound to something large.
T1 sequence (Q9GZT9 whole entry): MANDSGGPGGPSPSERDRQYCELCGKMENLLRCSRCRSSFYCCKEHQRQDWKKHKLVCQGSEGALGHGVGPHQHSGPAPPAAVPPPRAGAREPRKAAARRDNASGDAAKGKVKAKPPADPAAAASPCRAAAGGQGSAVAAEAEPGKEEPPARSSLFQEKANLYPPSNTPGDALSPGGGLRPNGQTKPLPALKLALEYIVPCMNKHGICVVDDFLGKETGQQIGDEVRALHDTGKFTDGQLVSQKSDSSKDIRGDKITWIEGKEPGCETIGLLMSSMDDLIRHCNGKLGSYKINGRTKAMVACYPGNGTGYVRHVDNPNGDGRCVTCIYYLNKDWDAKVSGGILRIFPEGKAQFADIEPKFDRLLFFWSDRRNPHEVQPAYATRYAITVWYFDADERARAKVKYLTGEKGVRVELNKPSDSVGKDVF
Data set [2] is filed under the species Homo sapiens. The data set is described as follows: Antianemic activity in human assessed as increase in hemoglobin level. In kind it is functional.
Data set [3] can be described thus: Half life in human at 1 to 2 mg/kg, po administered as two or three times weekly. In kind it is ADME, organism-based. The note with it: in vivo.
For data set [4], the system named is Homo sapiens. The data set is described as follows: In vivo inhibition of PHD in human assessed as induction of EPO level in serum at 1 mg/kg, po administered as twice weekly measured at 4 to 10 hrs post dose. The data set is classed as functional.
The target of data set [5] is T2, Prolyl hydroxylase EGLN3 (Homo sapiens, UniProt Q9H6Z9). The data set is described as follows: Inhibition of His tagged MBP-PHD3 (1 to 230 residues) (unknown origin) expressed in Escherichia coli using Cy5-labelled HIF2alpha as substrate preincubated for 3 mins followed by substrate addition nmeasured after 30 mins by LANCE assay. Background: In TR-FRET formats the signal depends on donor and acceptor labels being close together.
T2 sequence (Q9H6Z9 whole entry, the tested form may be a part): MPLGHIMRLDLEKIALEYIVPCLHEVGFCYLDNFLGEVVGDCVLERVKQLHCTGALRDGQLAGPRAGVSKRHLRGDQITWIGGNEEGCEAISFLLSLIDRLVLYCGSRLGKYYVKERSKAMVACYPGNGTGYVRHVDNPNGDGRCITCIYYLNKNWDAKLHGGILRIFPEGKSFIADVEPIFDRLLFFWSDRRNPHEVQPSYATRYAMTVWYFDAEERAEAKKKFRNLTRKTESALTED

For data set [6], the species on record is Homo sapiens. The experiment in a line: Selectivity ratio of IC50 for HIF-PHD2 (unknown origin) to IC50 for HIF-PHD1 (unknown origin).
The target in data set [7] is T2, Prolyl hydroxylase EGLN3. The data set is described as follows: Inhibition of PHD3 (unknown origin).
For data set [8], the target named is Prolyl hydroxylase EGLN2 (Homo sapiens, UniProt Q96KS0). The data set is described as follows: Inhibition of PHD1 (unknown origin).
Chain of Prolyl hydroxylase EGLN2 (Q96KS0 whole entry): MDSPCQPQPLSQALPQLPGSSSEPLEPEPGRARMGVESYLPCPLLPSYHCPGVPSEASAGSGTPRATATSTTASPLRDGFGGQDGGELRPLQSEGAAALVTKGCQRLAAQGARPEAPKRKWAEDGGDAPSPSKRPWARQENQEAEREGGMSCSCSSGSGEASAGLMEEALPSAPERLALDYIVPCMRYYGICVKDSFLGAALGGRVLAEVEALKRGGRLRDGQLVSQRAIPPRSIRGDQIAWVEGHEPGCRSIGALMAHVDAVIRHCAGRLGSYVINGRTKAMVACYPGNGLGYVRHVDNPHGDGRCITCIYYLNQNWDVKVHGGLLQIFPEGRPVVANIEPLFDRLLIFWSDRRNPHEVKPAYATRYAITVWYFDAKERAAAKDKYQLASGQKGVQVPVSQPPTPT
Data set [9] has as its system Mus musculus. The experiment in a line: In vivo inhibition of PHD in B6D2F1 mouse assessed as induction of EPO level at 60 mg/kg measured at 12 hrs post dose relative to control. The data set is classed as functional.
The subject of data set [10] is Homo sapiens. The data set is described as follows: In vivo inhibition of PHD in human assessed as induction of EPO level in serum at 10 mg measured after 4 weeks. In kind it is functional.
The nature of data set [11]: Inhibition of PHD (unknown origin). On the set-up: species or system Homo sapiens.
Data set [12] in a line: Inhibition of PHD in rat H9C2 cells after 24 hrs by ELISA. The data set is classed as cell-based.
Data set [13] deals with Mus musculus. The data set is described as follows: Cardioprotective activity in C57BL/6 mouse assessed as reduction in area of infract at 30 mg/kg measured at 4 hrs post dose relative to control. In kind it is functional. On the set-up: scale not given: the % may be the effect or the level left.
For data set [14], the system named is Mus musculus. The experiment in a line: Cardioprotective activity in C57BL/6 mouse assessed as reduction in area of infract at 10 mg/kg measured at 4 hrs post dose relative to control. The data set is classed as functional. On the set-up: scale not given: the % may be the effect or the level left.
The subject of data set [15] is Mus musculus. The experiment in a line: Cardioprotective activity in C57BL/6 mouse assessed as reduction in lactate dehydrogenase release to coronary effluent at 30 mg/kg measured at 4 hrs post dose relative to control. The data set is classed as functional. On the set-up: scale not given: the % may be the effect or the level left.
The test system of data set [16] is Mus musculus. The experiment in a line: Cardioprotective activity in C57BL/6 mouse assessed as reduction in lactate dehydrogenase release to coronary effluent at 10 mg/kg measured at 4 hrs post dose relative to control. In kind it is functional. On the set-up: scale not given: the % may be the effect or the level left.
Data set [17] deals with Mus musculus. The data set is described as follows: Cardioprotective activity in C57BL/6 mouse assessed as induction in VEGF mRNA levels at 60 mg/kg, po measured at 2 hrs post dose by qRT-PCR relative to control. In kind it is functional.
Data set [18] is described as follows: Inhibition of PHD (unknown origin) by FRET assay. On the set-up: species or system Homo sapiens.
The nature of data set [19]: Inhibition of PHD in human A549 cells by luciferase reporter gene assay. The data set is classed as cell-based. For orientation: A reporter such as luciferase makes a cellular process visible.
The species entered for data set [20] is Homo sapiens. The data set is described as follows: Inhibition of PHD (unknown origin) assessed as induction of EPO by cell based assay relative to control.
Data set [21] is filed under the species Homo sapiens. The experiment in a line: Selectivity ratio of IC50 for PHD3 (unknown origin) to IC50 for PHD2 (unknown origin).
A short description of data set [22]: Oral bioavailability in Wistar rat. The data set is classed as ADME, organism-based. The note with it: in vivo.
The nature of data set [23]: Oral bioavailability in dog. The note with it: in vivo. In kind it is ADME, organism-based, Canis lupus familiaris.
A short description of data set [24]: Oral bioavailability in monkey. The note with it: rhesus monkey, in vivo. The data set is classed as ADME, organism-based, Macaca mulatta.
The test system of data set [25] is Rattus norvegicus. The data set is described as follows: In vivo inhibition of PHD in Wistar rat assessed as increase in packed cell volume at 1.25 mg/kg, po measured after 26 days relative to control. The data set is classed as functional. On the set-up: scale not given: the % may be the effect or the level left.
For data set [26], the system named is Rattus norvegicus. The experiment in a line: In vivo inhibition of PHD in Wistar rat assessed as increase in packed cell volume at 5 mg/kg, po measured after 26 days relative to control. The data set is classed as functional. Further details: scale not given: the % may be the effect or the level left.
For data set [27], the system named is Homo sapiens. The data set is described as follows: In vivo inhibition of PHD in human assessed as induction of EPO level in serum at 900 mg measured after 18 hrs. In kind it is functional.
The species named for data set [28] is Homo sapiens. The data set is described as follows: Inhibition of PHD in human Hep3B cells assessed as induction of EPO level by cell based assay relative to control.
Data set [29] concerns the target T1, Egl nine homolog 1. The data set is described as follows: Inhibition of FLAG- tagged full length HIF-PHD2 (unknown origin) expressed in baculovirus-infected Sf9 cells using biotin labelled DLDLEMLAPYIPMDDDFQL as substrate preincubated for 30 mins followed by substrate addition measured after 2 hrs by LANCE assay.
In data set [30] the target is T1, Egl nine homolog 1. The data set is described as follows: Inhibition of human PHD2 expressed in 293FT cells using HIF-1 [alpha] as substrate after 20 mins by fluorescence polarization assay.
For data set [31], the target named is T1, Egl nine homolog 1. The experiment in a line: Inhibition of N-terminal truncated PHD2 (unknown origin) using biotin labelled DLDLEMLAPYIPMDDDFQL as substrate by AlphaScreen assay.

`O=C(O)CNC(=O)c1ncc(C#CCOc2ccc(Cl)cc2)cc1O` [DDO-3055] had an IC50 in data set [1] of 13.7 µM. On to `Cc1nc(C(=O)NCC(=O)O)c(O)c2ccc(Oc3ccccc3)cc12` [ROXADUSTAT], for which the Activity result in [2] is reported as “>=1 g/dl”; in data set [4], 115 mU/ml. Moreover, the half-life in [3] is 12 h. As to `COc1ccc(-n2c(=S)[nH]c3cc(C(=O)NCc4ccc(Cl)cc4)sc3c2=O)nc1OC`, in data set [5], the IC50 was in the range of 0.001 to 0.1 µM. With `CC(CC(=O)O)NC(=O)c1nc(C#N)c2cc(Oc3ccccc3)ccc2c1O` (stereo not given), the Ratio IC50 in data set [6] came to 40. Take `O=C(O)CNC(=O)c1c(O)n(C2CCCCC2)c(=O)n(C2CCCCC2)c1=O`: the values for the IC50 in data set [7] and in [8] were 0.0055 µM and 0.0035 µM, respectively. Also, the “fold change (FC)” value in data set [9] turned out to be 11.2. Also, the Activity in [10] came to 500 mIU/ml. `COCC1(CNC(=O)c2ccc(-n3ncc(-c4ccnc(OC)c4)c3O)nc2)CCCC1` returned a pIC50 in data set [11] of 8.4. The pEC50 in [12] was determined as 6.45. The compound `CCN1CCN(C(=O)c2ccc(-n3ncc(-c4ccc(C#N)cc4C)c3O)nc2)CC1` registered a pIC50 in data set [11] of 8. In addition, in data set [12], the pEC50 was found to be 6.25. Further, the Activity in [13] was 59%; in [14], 50%; in data set [15] it was 56%; in [16] it was 51%. For the same compound, in [17], the “fold change (FC)” value is on record as 2. In data set [18], `CC(C)(C)NC(=O)c1ccc(-n2[nH]cc(-c3cccnc3)c2=O)nc1` gave an IC50 of 0.91 µM.

In [18], `O=c1c(-c2cccnc2)c[nH]n1-c1ccccn1` returned an IC50 of 0.43 µM. This compound also displayed a 50% effective concentration (EC50) in data set [19] of 4.9 µM.

On to `COc1ccc(Oc2ccc3c(O)c(C(=O)NC(C)(C)CC(=O)O)nc(C#N)c3c2)cc1`, for which the Ratio IC50 in data set [6] is 40. With `O=C(O)c1cnn(-c2nc(O)c3c(cnn3C(c3ccc(Cl)cc3)c3ccc(Cl)cc3)n2)c1`, the fold change (FC) in data set [20] amounted to 40. The Ratio IC50 in data set [21] was determined as 130. Take `O=c1c(-n2ccnn2)c[nH]n1-c1cc(N2CCOCC2)ncn1` [MOLIDUSTAT]: the bioavailability in data set [22] is 34%; in data set [23], 71%; in data set [24], 61%. Besides, the Activity is 3% in data set [25] and 17% in data set [26]. For the compound `O=C(O)CNC(=O)c1ncc(-c2cccc(Cl)c2)cc1O`, the Activity in data set [27] was 32.4 mU/ml. With `CC(=O)Nc1c[nH]n(-c2ccc(C(=O)NCc3cccc(-c4ccccc4)c3)cc2)c1=O`, the fold change (FC) in data set [28] is 40. `COc1ccc(-n2c(=O)[nH]c3cc(C(=O)NCc4ccc(Cl)cc4)sc3c2=O)nc1OC`: the IC50 in data set [5] was 0.001 to 0.1 µM.

In turn, `O=C(O)CCNC(=O)c1ncc(C(=O)NC(c2ccccc2)c2ccccc2)c(O)n1` registered an IC50 in [29] of less than 0.02 µM.

As to `O=C(NCc1ccc2c(c1)CCO2)c1ccc(-c2ncn[nH]2)nc1`, half-maximal inhibition in data set [30] (IC50) required 0.061 µM. Consider `N#Cc1nc(C(=O)NCCC(=O)O)c(O)c2ccc(Oc3ccccc3)cc12`, for which the Ratio IC50 in data set [6] came to 5. `O=C(Cc1ccc(-c2ccccc2)cc1)Nc1cnc(-n2cccn2)nc1O`: inhibition in data set [29] was half-maximal at 0.0007 µM (IC50). `O=C(O)CNC(=O)c1ncc(-c2cccc(F)c2)cc1O`: the 50% inhibitory concentration (IC50) in data set [1] was 13.7 µM. Consider `COc1ccc(C(NC(=O)c2cnc(-c3cccnn3)nc2O)c2ccc([PH](=O)O)cc2)cc1` (stereo not given), for which the IC50 in data set [29] is less than 0.01 µM. Consider `O=C(O)CCC(=O)NNC(=O)c1cc2ccccc2cn1`, for which it took 18.4 µM to reach half-maximal inhibition in data set [31] (IC50).
